# Source: patent US10933053B2, “Treating infections with ceftolozane/tazobactam in subjects having impaired renal function” (MERCK SHARP & DOHME CORP., priority 2013, dated 2021)
# Tests used:
# [1] = Pharmacokinetics of ceftolozane/tazobactam in healthy adults, single and multiple IV doses; settings: for Cmax: mean (CV %); for Tmax: median (minimum, maximum)
# Source text: The intravenous formulation of CXA-201 can be prepared by reconstituting a fixed dose combination mixture of two active components (ceftolozane and tazobactam), and intravenously administering the reconstituted pharmaceutical composition. The pharmacokinetic (PK) profile of ceftolozane/tazobactam has been studied in several preclinical and clinical studies.
# The pharmacokinetic (PK) profile of ceftolozane/tazobactam has been studied in several preclinical and clinical studies.
# [2] = subjects with normal renal function; cited from earlier work
# clinical = settings: human, in vivo; for Tmax / clearance / Vd / half-life: both sexes; for clearance: CL; for clearance / Vd: mean (CV %); for Vd: Vss; for half-life: t1/2, mean (CV %); for AUC higher in females compared to males / CL, mean (CV %) / Vss, mean (CV %) / t1/2, mean (CV %) / tmax, median (minimum, maximum): both
# Description: This TQT study was a single-center, prospective, randomized, double-blind, double-dummy, placebo and active controlled, 4-way crossover study that evaluated a single therapeutic 1.5 g and a single supratherapeutic 4.5 g dose of ceftolozane/tazobactam compared with placebo. Moxifloxacin 400 mg, given orally, was used as a positive control. All subjects received study drug on 4 dosing days (Day 1, Day 5, Day 9, and Day 13) in a crossover fashion with a 3-day wash-out period between doses. Healthy men and women were randomized on a 1:1:1:1 basis to 1 of 4 dosing sequences.
# Electrocardiograms were recorded (triplicate measurements) over 24 hours on Day 1, Day 5, Day 9, and Day 13 using a 12-lead Holter monitor. Blood samples for determination of ceftolozane, tazobactam, and the M1 metabolite of tazobactam levels were obtained at prespecified time intervals prior to and following each electrocardiogram (ECG) reading on dosing days. Plasma levels of ceftolozane, tazobactam, and its metabolite M1 were determined by LC/MS/MS assay.
# [3] = Population PK model of ceftolozane and tazobactam (healthy volunteers, renal impairment, cUTI/cIAI patients); settings: for CLd, population estimate: intercompartmental clearance; for Vc (L)^d, population estimate: peripheral volume of distribution per footnote
# Description: A population-PK analysis was performed on plasma ceftolozane and tazobactam concentration-time data from adult subjects enrolled in 10 studies. Subjects were included from multiple sites and all studies were performed in accordance with the International Conference on Harmonization guidelines on good clinical practice and the Declaration of Helsinki. An investigational review board approved the study protocols at each site.
# Serum concentration data were analyzed from 5 studies in healthy volunteers (n=184), 3 studies in subjects with varying degrees of renal impairment (n=42), and 2 phase 2 studies in patients with bacterial infections (cUTIs [n=73] and cIAIs [n=77]). In all studies, ceftolozane was administered as a 1-hour intravenous infusion either alone or in combination with tazobactam at a fixed 2:1 ratio (ceftolozane:tazobactam). […] In the phase 2 trials, cUTI patients received ceftolozane alone 1000 mg (q8h) and cIAI patients received ceftolozane/tazobactam 1000/500 mg (q8h).
# All subjects who received at least 1 dose of study medication and had at least 1 measurement of ceftolozane or tazobactam were included (N=376). Plasma concentrations of ceftolozane and tazobactam were determined by a validated liquid-chromatography-tandem mass spectrometry assay (MicroConstants, Inc., San Diego, Calif.) described previously. Concentrations below the limit of quantitation (BLQ), as defined previously, were considered as missing. No substitutions were made to account for these missing data points.
# Base model development. The model was developed in 2 stages: a preliminary PK model was developed based on datasets from 3 studies. In the current analysis, the structural model was refined using the PK data from 10 studies (including patients with cUTI or cIAI) and the covariate analysis repeated. The results based on this revised model are presented here. A nonlinear mixed-effects model was developed with Phoenix® NLME™ software, version 1.2, 2012 (Certara L. P. Pharsight, St. Louis, Mo.) using first-order maximum likelihood estimation, and a 2-compartment structure model was fitted to the plasma concentration time data. The First Order Conditional Estimation-Extended Least Squares (FOCE-ELS) engine was used for model fitting. The software R (R Foundation for Statistical Computing, Vienna, Austria, 2013) was used to generate tables of post hoc PK parameters and descriptive statistics.
# Sources of variability, that may affect drug exposure, were identified using correlation plots of individual random effects (ETA with mean 0 and estimated variance ? ^2) of parameters such as systemic clearance (CL) and central volume of distribution (Vc) versus covariates. Extrinsic covariates analyzed included dose levels, drug-drug interactions between ceftolozane and tazobactam, and disease status (bacterial infections). Intrinsic covariates analyzed included body weight, age, sex, ethnicity, and baseline calculated CrCL). […] Renal impairment was categorized as normal (CrCL≥90 mL/min), mild (CrCL≥50-<90 mL/min), moderate (CrCL≥30-<50 mL/min), and severe (CrCL≥15-<30 mL/min).
# Scatter plots were used to examine the effect of continuous variables and box plots were used for categorical variables. […] Covariates were introduced in a multiplicative order using a power model standardized by the median for continuous covariates and a linear model with an exponentiated factor relative to the reference for categorical covariates.
# Final population PK model: evaluation and performance. The final population-PK models for ceftolozane and tazobactam were evaluated using standard diagnostics, goodness-of-fit criteria, nonparametric bootstrap resampling, and visual predictive check (VPC).
SMILES,median daily steady-state AUC [2] [µg·h/mL],Tmax (clinical) [h],clearance (clinical) [mL/min],Vd (clinical) [L],half-life (clinical) [h],AUC higher in females compared to males (clinical) [%],"CL, mean (CV %) (clinical)","Vss, mean (CV %) (clinical)","t1/2, mean (CV %) (clinical)","tmax, median (minimum, maximum) (clinical)",Exponent of the relationship between CLcr and CL ([3]; Table 31 model),"Interindividual variability of CL, estimate ([3]; Table 31 model) [%]","Interindividual variability of Vc, estimate ([3]; Table 31 model) [%]",Proportional shift in Vc for infected patients ([3]; Table 31 model),"Vc, population estimate ([3]; Table 31 model) [L]","CLd, population estimate ([3]; Table 31 model) [L/h]","Vc (L)^d, population estimate ([3]; Table 31 model) [L]",between-subject variability (BSV) of CL ([3]; final model) [%],also measured
"C[C@]1(Cn2ccnn2)[C@H](C(=O)O)N2C(=O)C[C@H]2S1(=O)=O [Tazobactam, tazobactam]",89.4,0.667,368,18.2,0.87,19,21.2 (19) L/h,19.3 (22) L,1.05 (17) h,"0.667 (0.667, 1.17) h",0.67,50.2,52.5,1.47,14.2,3.13,4.29,50.2,"excreted in the urine as the unchanged parent drug ([1]; healthy volunteers): 80%; half-life ([1]; human, in vivo, intravenous, terminal elimination half-life (t1/2β), healthy volunteers / normal renal function): ~1 h; AUC(0-t) ([1]; human, plasma, intravenous, 1.5 g): 24.4 µg·h/mL; Cmax ([1]; human, plasma, intravenous, 1.5 g, 1.5 g q8h 1-hour infusion, healthy adults, Day 1): 18400 ng/mL; Cmax ([1]; human, plasma, intravenous, 1.5 g, 1.5 g q8h 1-hour infusion, healthy adults, Day 10): 18000 ng/mL; half-life ([1]; human, plasma, intravenous, 1.5 g, t1/2, mean (CV %), 1.5 g q8h, healthy adults, Day 10): 1.03 h; Tmax ([1]; human, plasma, intravenous, 1.5 g, 1.5 g q8h, healthy adults, Day 1): 1.02 h; half-life ([1]; human, plasma, intravenous, terminal elimination half-life (t1/2β), healthy volunteers / normal renal function): ~1 h; excreted in the urine as unchanged parent drug ([1]; single 1.5 g IV dose of CXA-201, healthy male adults): More than 80%; power function of baseline CrCL on CL ([3]; [CrCL/115] exponent): 0.67; CL, population estimate ([3]; final model): 18.0 L/h; between-subject variability (BSV) of Vc ([3]; final model): 52.5%; inter-compartment clearance (CL2), population PK ([3]; final model): 3.13 L/h; volume of distribution in the peripheral compartment (Vp), population PK ([3]; final model): 4.29 L; CL, population estimate ([3]; previously-developed population PK model (Table 31)): 18.0 L/h; Vc, population estimate ([3]; subjects without infection): 14.2 L"
"Cn1c(N)c(NC(=O)NCCN)c[n+]1CC1=C(C(=O)O)N2C(=O)[C@@H](NC(=O)/C(=N\OC(C)(C)C(=O)O)c3nsc(N)n3)[C@H]2SC1 [Ceftolozane, (6R,7R)-3-[(5-amino-4-{[(2-aminoethyl)carbamoyl]amino}-1-methyl-1H-pyrazol-2-ium-2-yl)methyl]-7-({(2Z)-2-(5-amino-1,2,4-thiadiazol-3-yl)-2-[(1-carboxy-1-methylethoxy)imino]acetyl}amino)-8-oxo-5-thia-1-azabicyclo[4.2.0]oct-2-ene-2-carboxylate]",690,0.667,92.8,13.5,2.29,22,5.50 (17) L/h,13.7 (20) L,2.72 (21) h,"0.667 (0.667, 1.18) h",0.75,34.3,34.0,1.37,11.8,0.884,2.88,33.0,"AUC(0-t) ([1]; human, in vivo): 172 µg·h/mL; CL renal ([1]; human, in vivo): 56.8 to 112 mL/min; Cmax, mean (CV %) ([1]; human, in vivo): 74.4 (14) μg/mL; clearance ([1]; human, in vivo): 68.3 to 112 mL/min; t1/2, mean (CV %) ([1]; human, in vivo): 3.12 (22) h; tmax, median (minimum, maximum) ([1]; human, in vivo): 1.07 (1.0, 1.1) h; Cmax ([1]; human, in vivo): 69100 ng/mL; half-life ([1]; human, in vivo, t1/2, mean (CV %)): 2.77 h; half-life ([1]; human, in vivo, terminal elimination half-life (t1/2β)): ~2.5 h; Tmax ([1]; human, in vivo): 1.02 h; excreted in the urine as unchanged parent drug ([1]; male, human, in vivo, iv): greater than 95%; Exponent of the relationship between weight and CL ([3]; Table 31 model): 0.76; Proportional shift in CL for infected patients ([3]; Table 31 model): 1.26; Vc, population PK ([3]; cIAI): 18.2 L; Vc, population PK ([3]; cUTI, at 74 kg body weight): 13.8 L; CL, population estimate ([3]; human): 5.14 L/h; inter-compartment clearance (CL2), population PK ([3]; human): about 1 L/h; volume of distribution in the peripheral compartment (Vp), population PK ([3]; human): about 3 L; CL higher than in healthy subjects ([3]; patients with cUTI and cIAI): about 20%"
